{
  "source": "patent US11590129B2",
  "about": "“Combination therapy with an antitumor alkaloid” (PHARMA MAR, S.A., priority 2010, dated 2023)",
  "key": {"[1]": {"test_system": "SK-MEL-2 human melanoma cell line", "experiment": "cells", "protocol": "(§1) a. […] Briefly, cells were harvested and seeded in 96 well microtiter plates at a density of 5,000 cells in 150 μL of culture medium and incubated for 24 hours in drug-free medium before treatment with vehicle alone or test compounds for 72 h.\n(§2) The cytotoxic effect was measured by the MTT reduction assay, in which 3-(4,5-Dimethylthiazol-2-yl)-2,5-diphenyltetrazolium bromide, a tetrazole, which is reduced to purple formazan in the mitochondria of living cells, was used. MTT (50 μL of 1 mg/mL stock solution) was added to the wells and incubated for 8 hours at 37° C. until formazan crystals were formed. After gently removing the culture medium, DMSO was added to dissolve the insoluble purple formazan product into a colored solution. […] Results were expressed as percentage of control cell growth.\n(§3) b. In a second set of assays, A549 human tumor cells were incubated with PM01183 in combination with each of the agents mentioned above.\n(§4) As a visual aid, response values were plotted on a scatter plot with dose ratios given on the x-axis and % response values on the y-axis. […] In cases where response values at the two endpoints were approximately equivalent, points lying above or below this predicted line of additivity could be interpreted as representing antagonistic or synergistic drug interaction, respectively.\n(§5) Additional serial dilutions were prepared in serum-free culture medium to achieve a final 4× concentration. Aliquots of 50 μL of each diluted compound were added per well.\nSK-MEL-2 was the human melanoma cell line selected for this assay."}, "[2]": {"test_system": "IGROV-1 human ovarian adenocarcinoma cell line", "experiment": "cells", "protocol": "as §1, §2, §3, §4, §5\nIGROV-1 was the human ovarian adenocarcinoma cell line selected for this assay."}, "[3]": {"test_system": "RXF-393 human kidney carcinoma cell line", "experiment": "cells", "protocol": "as §1, §2, §3, §4, §5"}, "[4]": {"test_system": "MDA-MB-231 human breast adenocarcinoma cell line", "experiment": "cells", "protocol": "as §1, §2, §3, §4, §5"}, "[5]": {"test_system": "HT-29 human colon adenocarcinoma cell line", "experiment": "cells", "protocol": "as §1, §2, §3, §4, §5\nHT-29 was the human colon adenocarcinoma cell line selected for this assay."}, "[6]": {"test_system": "PC-3 human prostate cancer cell line", "experiment": "cells", "protocol": "as §1, §2, §3, §4, §5\nPC-3 was the human prostate adenocarcinome cell line selected for this assay."}, "[7]": {"test_system": "A673 human rhabdomyosarcoma cell line", "experiment": "cells", "protocol": "as §1, §2, §3, §4, §5\nA673 was the human rhabdomyosarcoma cell line selected for this assay."}, "[8]": {"test_system": "A549 human lung carcinoma cell line", "experiment": "MTT cytotoxicity assay in A549 cells: IC50 of single agents and combinations with PM01183", "format": "cell-based", "protocol": "as §5\nA549 was the human lung carcinoma cell line selected for this assay.\nas §1, §2, §3, §4"}, "[9]": {"test_system": "U87-MG human glioblastoma cell line", "experiment": "cells", "protocol": "as §1, §2, §3, §4, §5\nU87-MG was the human glioblastoma cell line selected for this assay."}, "HGC-27 tumors": {"test_system": "HGC-27 tumors", "experiment": "Human gastric tumor xenografts (HGC-27) in athymic nude mice, tumor volume % T/C", "format": "in vivo", "protocol": "Female athymic nude mice (Harlan Laboratories Models, S.L. (Barcelona, Spain) were utilized for all experiments. Animals were housed in individually ventilated cages, up to ten per cage in a 12-hour light-dark cycle at 21-23° C. and 40-60% humidity. The mice were allowed free access to irradiated standard rodent diet and sterilized water. Animals were acclimated for at least 5 days prior to tumor implantation with a tumor cell suspension.\nHGC-27 cells were grown at 37° C. with 5% CO2 in Iscove's modified Dulbeco's medium (IDMD).\nPM01183 was provided in the form of vials of lyophilized PM01183 cake which was reconstituted with water for infusion to a concentration of 0.2 mg/mL. The PM01183 stock solution was further diluted in 5% glucose solution for injection to the dosing formulation concentrations. Cisplatin and 5-fluorouracil were provided as solutions prepared by diluting the product with 0.9% saline solution for injection to the target final concentration.\nDose level groups were administered either as single agents or in combination.\nComparison of the median tumor volume in the treatment groups (T) to the median tumor volume in the control group (T/C×100%) was used for evaluation of the antitumor efficacy."}, "[10]": {"test_system": "HGC-27 human gastric carcinoma cell line", "experiment": "cells", "protocol": "as §1, §2, §3, §4, §5\nHGC-27 was the human gastric carcinoma cell line selected for this assay."}, "[11]": {"test_system": "HepG2 human hepatocellular liver carcinoma cell line", "experiment": "MTT cytotoxicity assay in HepG2 cells: IC50 of single agents and combinations with PM01183", "format": "cell-based", "protocol": "as §1, §2, §3, §4, §5\nHepG2 was the human hepatocellular liver carcinoma cell line selected for this assay."}, "[12]": {"test_system": "PANC-1 human pancreatic carcinoma cell line", "experiment": "cells", "protocol": "as §1, §2, §3, §4, §5\nPANC-1 was the human pancreatic carcinoma cell line selected for this assay."}, "[13]": {"details": "5-fluorouracil 12.5 mg/kg iv days 0,7"}, "[14]": {"details": "5-fluorouracil 37.5 mg/kg iv days 0,7"}, "[15]": {"details": "5-fluorouracil 50.0 mg/kg iv days 0,7"}},
  "note": "Read-outs that look alike come from different tables or passages of the source.",
  "data": [
    {"compound": "CO[C@@]12[C@H](COC(N)=O)C3=C(C(=O)C(C)=C(N)C3=O)N1C[C@@H]1N[C@@H]12", "note": "[Mitomycin C, mitomycin C]", "values": [
      {"measurement": "IC50", "setting": "[1]", "result": 0.9, "unit": "µM"},
      {"measurement": "IC50", "setting": "[2]", "result": 3, "unit": "µM"},
      {"measurement": "IC50", "setting": "[3]", "result": 9, "unit": "µM"},
      {"measurement": "IC50", "setting": "[4]", "result": 2, "unit": "µM"},
      {"measurement": "IC50", "setting": "[5]", "result": 2, "unit": "µM"},
      {"measurement": "IC50", "setting": "[6]", "result": 10, "unit": "µM"},
      {"measurement": "IC50", "setting": "[7]", "result": 2.99, "unit": "µM"},
      {"measurement": "IC50", "setting": "[8]; read-out: IC50", "result": 249, "unit": "µM"}
    ]},
    {"compound": "O=c1[nH]cc(F)c(=O)[nH]1", "note": "[5-FU, 5-fluorouracil]", "values": [
      {"measurement": "IC50", "setting": "[1]; Homo sapiens, SK-MEL-2, 72 h", "result": 700, "unit": "µM"},
      {"measurement": "IC50", "setting": "[2]; Homo sapiens, IGROV-1, 72 h", "result": 90, "unit": "µM"},
      {"measurement": "IC50", "setting": "[3]; Homo sapiens, RXF 393, 72 h", "result": 300, "unit": "µM"},
      {"measurement": "IC50", "setting": "[4]; Homo sapiens, MDA-MB-231, 72 h", "result": 90, "unit": "µM"},
      {"measurement": "IC50", "setting": "[9]; Homo sapiens, U-87 MG, 72 h", "result": 1000, "unit": "µM"},
      {"measurement": "% T/C on day 0", "setting": "HGC-27 tumors; [13]", "result": 100.7, "unit": "%"},
      {"measurement": "% T/C on day 2", "setting": "HGC-27 tumors; [13]", "result": 81.7, "unit": "%"},
      {"measurement": "% T/C on day 5", "setting": "HGC-27 tumors; [13]", "result": 101.3, "unit": "%"},
      {"measurement": "% T/C on day 7", "setting": "HGC-27 tumors; [13]", "result": 102.8, "unit": "%"},
      {"measurement": "% T/C on day 9", "setting": "HGC-27 tumors; [13]", "result": 98.6, "unit": "%"},
      {"measurement": "% T/C on day 12", "setting": "HGC-27 tumors; [13]", "result": 90.5, "unit": "%"},
      {"measurement": "% T/C on day 14", "setting": "HGC-27 tumors; [13]", "result": 83.8, "unit": "%"},
      {"measurement": "% T/C on day 0", "setting": "HGC-27 tumors; [14]", "result": 99.4, "unit": "%"},
      {"measurement": "% T/C on day 2", "setting": "HGC-27 tumors; [14]", "result": 86.9, "unit": "%"},
      {"measurement": "% T/C on day 5", "setting": "HGC-27 tumors; [14]", "result": 86.9, "unit": "%"},
      {"measurement": "% T/C on day 7", "setting": "HGC-27 tumors; [14]", "result": 78.6, "unit": "%"},
      {"measurement": "% T/C on day 9", "setting": "HGC-27 tumors; [14]", "result": 73.2, "unit": "%"},
      {"measurement": "% T/C on day 12", "setting": "HGC-27 tumors; [14]", "result": 76.7, "unit": "%"},
      {"measurement": "% T/C on day 14", "setting": "HGC-27 tumors; [14]", "result": 83.1, "unit": "%"},
      {"measurement": "% T/C on day 0", "setting": "HGC-27 tumors; [15]", "result": 100.3, "unit": "%"},
      {"measurement": "% T/C on day 2", "setting": "HGC-27 tumors; [15]", "result": 81.2, "unit": "%"},
      {"measurement": "% T/C on day 5", "setting": "HGC-27 tumors; [15]", "result": 82.3, "unit": "%"},
      {"measurement": "% T/C on day 7", "setting": "HGC-27 tumors; [15]", "result": 81.1, "unit": "%"},
      {"measurement": "% T/C on day 9", "setting": "HGC-27 tumors; [15]", "result": 75.6, "unit": "%"},
      {"measurement": "% T/C on day 12", "setting": "HGC-27 tumors; [15]", "result": 69.6, "unit": "%"},
      {"measurement": "% T/C on day 14", "setting": "HGC-27 tumors; [15]", "result": 60.7, "unit": "%"},
      {"measurement": "IC50", "setting": "[10]; Homo sapiens, HGC-27, 72 h", "result": 10, "unit": "µM"},
      {"measurement": "IC50", "setting": "[5]; Homo sapiens, HT-29, 72 h", "result": 9, "unit": "µM"},
      {"measurement": "IC50", "setting": "[6]; Homo sapiens, PC-3, 72 h", "result": 1000, "unit": "µM"},
      {"measurement": "IC50", "setting": "[8]; Homo sapiens, A549, 72 h", "result": 92.3, "unit": "µM"},
      {"measurement": "IC50", "setting": "[11]; Homo sapiens, HepG2, 72 h", "result": 4.5, "unit": "µM"}
    ]},
    {"compound": "CC(C)C[C@H](NC(=O)[C@H](Cc1ccccc1)NC(=O)c1cnccn1)B(O)O", "note": "[Bortezomib, bortezomib]", "values": [
      {"measurement": "IC50", "setting": "[9]; Homo sapiens, U-87 MG, 72 h", "result": 0.4, "unit": "µM"},
      {"measurement": "IC50", "setting": "[10]; Homo sapiens, HGC-27, 72 h", "result": 0.0056, "unit": "µM"},
      {"measurement": "IC50", "setting": "[12]; Homo sapiens, PANC-1, 72 h", "result": 0.416, "unit": "µM"},
      {"measurement": "IC50", "setting": "[5]; Homo sapiens, HT-29, 72 h", "result": 0.00615, "unit": "µM"},
      {"measurement": "IC50", "setting": "[6]; Homo sapiens, PC-3, 72 h", "result": 0.8, "unit": "µM"},
      {"measurement": "IC50", "setting": "[8]; Homo sapiens, A549, 72 h", "result": 0.0031, "unit": "µM"},
      {"measurement": "IC50", "setting": "[11]; Homo sapiens, HepG2, 72 h", "result": 0.39, "unit": "µM"}
    ]},
    {"compound": "O=C1[O][Pt]2([NH][C@@H]3CCCC[C@H]3[NH]2)[O]C1=O", "note": "[Oxaliplatin, oxaliplatin]", "values": [
      {"measurement": "IC50", "setting": "[2]", "result": 8.5, "unit": "µM"},
      {"measurement": "IC50", "setting": "[4]", "result": 108, "unit": "µM"},
      {"measurement": "IC50", "setting": "[9]", "result": 190, "unit": "µM"},
      {"measurement": "IC50", "setting": "[10]", "result": 106, "unit": "µM"},
      {"measurement": "IC50", "setting": "[12]", "result": 184, "unit": "µM"},
      {"measurement": "IC50", "setting": "[5]", "result": 103, "unit": "µM"},
      {"measurement": "IC50", "setting": "[6]", "result": 171, "unit": "µM"},
      {"measurement": "IC50", "setting": "[7]", "result": 78, "unit": "µM"},
      {"measurement": "IC50", "setting": "[8]; read-out: IC50", "result": 900, "unit": "µM"},
      {"measurement": "IC50", "setting": "[11]; read-out: IC50", "result": 28, "unit": "µM"}
    ]}
  ]
}
